For series [1] the following is noted: taken from Fujita et al. (1964); cited from earlier work.
For series [2], the system named is MAO. Kind of series: MAO activity assay (membrane fraction of hamster liver mitochondria lysate). Type of series: biochemical. Conditions: for IC50: read-out: MAO inhibition IC50. Here is the method:
(§1) Several of the synthesized compounds were tested for MAO and ALDH-2 suppression activity. The membrane and supernatant fractions of the lysate of a gradient purified hamster liver mitochondria preparation were used as sources of MAO and ALDH-2, respectively. ALDH-2 and MAO activity assays were performed according to established procedures (Rooke et al. (2000) J. Med. Chem. 43:4169).

For series [3], the target named is T1, ALDH-2 (Mesocricetus auratus, UniProt P81178).
T1 construct: membrane and supernatant fractions of the lysate of a gradient purified hamster liver mitochondria preparation; from tissue; host or cells: hamster liver mitochondria, supernatant fraction of the lysate
T1 sequence (P81178 20-519): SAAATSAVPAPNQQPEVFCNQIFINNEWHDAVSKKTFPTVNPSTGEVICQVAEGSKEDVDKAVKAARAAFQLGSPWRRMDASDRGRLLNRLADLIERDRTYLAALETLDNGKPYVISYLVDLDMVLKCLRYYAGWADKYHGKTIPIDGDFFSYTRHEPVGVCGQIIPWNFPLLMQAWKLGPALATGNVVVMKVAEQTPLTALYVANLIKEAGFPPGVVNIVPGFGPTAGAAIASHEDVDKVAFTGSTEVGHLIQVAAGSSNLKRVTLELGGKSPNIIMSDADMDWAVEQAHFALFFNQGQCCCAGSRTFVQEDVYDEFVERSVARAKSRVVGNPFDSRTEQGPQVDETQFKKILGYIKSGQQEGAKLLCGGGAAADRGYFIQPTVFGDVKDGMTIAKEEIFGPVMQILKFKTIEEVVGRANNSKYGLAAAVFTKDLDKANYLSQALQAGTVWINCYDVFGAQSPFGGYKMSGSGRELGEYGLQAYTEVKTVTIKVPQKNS
Kind of series: ALDH-2 activity assay (supernatant of hamster liver mitochondria lysate). Type of series: biochemical. Conditions: for IC50: read-out: ALDH-2 inhibition IC50. Here is the method:
as §1

Series [4] concerns golden hamsters. The experiment in a line: Ethanol drinking experiments, two-bottle choice. In kind it is in vivo. Conditions: 0.07 mmol/day/hamster for 5 consecutive days. Here is the method: Effects of the newly synthesized analogs on hamster ethanol intake were determined according to the method described below. Animals were male adult golden hamsters (outbred, Lakeview Lak: LVG[SYR]), purchased from Charles River Laboratories, Wilmington, Mass. 01887 or Harlan Sprague Dawley, Inc., Indianapolis, Ind. 46229. Upon arrival, hamsters were housed in a room maintained at 23° C., 35-45% humidity, with a 12/12 hr light/dark cycle (light on 0600-1800 hr), ad libitum access to Purina Chow (5001) and a 15% v/v ethanol solution. After a week, each hamster was transferred to an individual stainless steel cage (26×18×17.5 cm). Two 50 ml drinking bottles, one containing water and the other a 15% ethanol solution, were provided continuously. The bottles were placed in holders equipped with tilted platforms which direct spillage to tubes placed outside of the cages. The positions of the two drinking bottles on each cage were altered daily to prevent development of positional preference. Fluid intake was measured at 0900 hr each day. Hamsters that drank significant (>8 ml/day) and consistent (daily variance <±20%) amounts of ethanol solution were selected for testing. To establish baseline ethanol and water intake, 1 ml sterile saline was administered daily to each hamster between 1500-1600 hr for 6 days (saline control period, Day 1 to Day 6). A daily dose of 0.07 mmol of test compound was then administered for 5 consecutive days (treatment period, Day 7 to Day 11). After the last dose, ethanol and water intake were monitored for another 6 days (post treatment period, Day 12 to Day 17). […] At an equivalent dose, daidzin suppressed ethanol intake by about 55% (Table 1).

The test system of series [5] is 5-HT metabolism in brain slices. The experiment in a line: 5-HT metabolism in rat brain slices. Type of series: cell-based. From the text: (§2) The effects of daidzin on monoamine metabolism were studied in hamster and rat liver and brain using tissue slices using 5-HT as the substrate. The effects of ethanol drinking on 5-HT metabolism in hamster liver and brain were examined. Freshly removed tissues were cut into small pieces (about 1 mm cubes) with a tissue-slicer, suspended in ice-cold phosphate buffered saline (PBS) (0.1 g/ml), and forced through a mesh 40 stainless steel screen mounted on a Millipore Swinnex Filter Holder. The minced tissues were allowed to sediment on ice before PBS was removed using a Pasteur pipette. The tissue slices were washed 5 more times each with 10 volumes of ice-cold PBS. After the final wash, tissues were suspended in 1 volume of PBS and dispensed using a micro-pipette with tips of i.d.=2 mm. 5-HT metabolism catalyzed by the tissue slices was assayed in a 1 ml assay medium containing PBS, 1 μM 5-HT, 100:1 tissue slices, and specified concentrations of daidzin or ethanol. Reactions were initiated by the addition of tissues and allowed to proceed for 30 min at 37° C. in a shaking water bath. Reactions were terminated by addition of 0.1 ml ice-cold 1 M HClO4, and 10 mM EDTA. […] Contents of 5-HT, 5-HIAL, 5-HTOL and 5-HIAA in the supernatants were analyzed by HPLC as described before (Rooke et al. (2000) J. Med. Chem. 43:4169).

For series [6] the test system is unchanged. The experiment in a line: 5-HT metabolism in hamster brain slices. Type of series: cell-based.
Description: as §2

The nature of series [7]: Tissue distribution study, liver of hamsters on compound-Chow. Conditions: hamster, in vivo. In kind it is in vivo, hamster.
In series [8] the test system is Syrian golden hamsters (Meso cricetus auratus). Kind of series: Oral potency: compound mixed in chow, two-bottle free-choice ethanol intake. Type of series: in vivo. The conditions noted are these: oral. Here is the method: The oral potency of hexzein (7-O-ω-carboxypentyldaidzein) in reducing ethanol intake in Syrian golden hamsters (Meso cricetus auratus) was examined under a two-bottle free-choice protocol. Hexzein was mixed with Purina rodent meal (5755M) at 0 mg: 1 g (control), 2 mg: 1 g, 4 mg: 1 g, and 5 mg: 1 g ratios and the mixtures were pressed into 1×1×0.5 inch pellets. Food pellets, ethanol solution and water were provided continuously throughout the study and their intake were measured every day at 5 pm. Hexzein given in this manner did reduce ethanol intake. Ethanol intake in hamsters on 2 mg/g, 4 mg/g, and 5 mg/g hexzein-Chow were reduced by 18.3±3.8%, 47.8±7.4% and 56.5±5.4%, respectively.

Where “and” joins values, the source holds several entries; their conditions need not be identical. Equal entries are not always repeated.

Consider “4′-Bromoisoflavone 7-ω-Ethoxycarbonylpentyl Ether [Analog 26]”, for which the “π (hydrophobic constant of the 4′-substituent)” value in series [1] is 0.86.
With “7-Ethoxycarbonylpentyl-4′-Aminoisoflavone [Analog 33]”, the “π (hydrophobic constant of the 4′-substituent)” value in series [1] is −1.23.
As to `O=c1c(-c2ccccc2)coc2cc(O)ccc12` [Analog 1], the IC50 in [2] was 8.6 µM.
For the compound `COc1ccc2c(=O)c(-c3ccc(O)cc3)coc2c1` [Analog 2, 7-Methoxy-4′-Hydroxyisoflavone], in series [1], the “π (hydrophobic constant of the 4′-substituent)” value was −0.67.
In the case of `COc1ccc2c(=O)c(-c3ccccc3)coc2c1` [Analog 3, 7-Methoxyisoflavone], the “π (hydrophobic constant of the 4′-substituent)” value in series [1] is 0.00.
As to `CCOC(=O)CCCCCOc1ccc2c(=O)c(-c3ccccc3)coc2c1` [Analog 7, 7-O-Ethoxycarbonylpentylisoflavone], in series [1], the “π (hydrophobic constant of the 4′-substituent)” value was 0.00.
Consider `CC(=O)Oc1ccc2c(=O)c(-c3ccccc3)coc2c1` [Analog 10], for which, in series [3], the IC50 was 0.14 to 8 µM.
For the compound `O=C1c2ccccc2C(=O)N1CCCCOc1ccc2c(=O)c(-c3ccccc3)coc2c1` [Analog 14], the “MAO inhibition (in words)” value in series [2] is “none of the 4′-H series (analogs 3, 5, 7, 9, 12 and 14) had any effect on MAO”. The “EtOH intake suppression, %” value in series [4] is given as 37 ± 3%. In addition, the IC50 in [3] was 0.14 to 8 µM.
As to `O=c1c(-c2ccc(O)cc2)coc2cc(OCn3nnc4ccccc43)ccc12` [Analog 18], in series [3], the IC50 fell in the range of 0.14 to 8 µM.
For the compound `CCOC(=O)c1oc2cc(O)ccc2c(=O)c1-c1ccccc1` [Analog 20, 2-Ethoxycarbonyl-7-Hydroxyisoflavone], the melting point is 213 to 214 °C.
Consider `CCOC(=O)c1oc2cc(O)ccc2c(=O)c1-c1ccccc1` [Analog 20], for which the “ALDH-2 inhibition (in words)” value in [3] was “no effect on ALDH-2 activity”.
In turn, `O=C(O)c1oc2cc(O)ccc2c(=O)c1-c1ccccc1` [Analog 21, 2-Carboxy-7-Hydroxyisoflavone] showed a melting point of 257 to 258 °C.
For `O=c1c(-c2ccc(F)cc2)coc2cc(O)ccc12` [Analog 23], the IC50 in [2] turned out to be 1.5 µM.
On to `CCOC(=O)CCCCCOc1ccc2c(=O)c(-c3ccc(F)cc3)coc2c1` [Analog 24, 7-O-Ethoxycarbonylpentyl-4′-Fluoroisoflavone], for which the “π (hydrophobic constant of the 4′-substituent)” value in series [1] is reported as 0.14.
Compound `O=c1c(-c2ccc(Br)cc2)coc2cc(O)ccc12` [Analog 25, 7-Hydroxy-4′-Bromoisoflavone] registered a melting point of 266 to 268 °C.
With `O=c1c(-c2ccc(Br)cc2)coc2cc(O)ccc12` [Analog 25], in [2], the IC50 worked out at 1 µM.
Regarding `CCOC(=O)CCCCCOc1ccc2c(=O)c(-c3ccc([N+](=O)[O-])cc3)coc2c1` [Analog 28, 7-O-Ethoxycarbonylpentyl-4′-Nitroisoflavone], in series [1], the “π (hydrophobic constant of the 4′-substituent)” value is −0.28.
For the compound `Cc1ccc(-c2coc3cc(O)ccc3c2=O)cc1` [Analog 29], the IC50 in series [2] came to 9 µM.
Turning to `CCOC(=O)CCCCCOc1ccc2c(=O)c(-c3ccc(C)cc3)coc2c1` [Analog 30, 7-O-Ethoxycarbonylpentyl-4′-Methylisoflavone], the “π (hydrophobic constant of the 4′-substituent)” value in series [1] is 0.56.
Turning to `Nc1ccc(-c2coc3cc(O)ccc3c2=O)cc1` [Analog 32], the IC50 in series [2] is 12 µM and > 9 µM.
For the compound `COc1ccc2c(=O)c(-c3ccccc3)coc2c1OC` [Analog 34, 7,8-Dimethoxyisoflavone], the melting point was 143 to 144 °C.
Turning to `COc1ccc2c(=O)c(-c3ccccc3)coc2c1OC` [Analog 34], in series [2], the “Potency for MAO inhibition compared with counterpart analogs (in words)” value was “substantially decreased potencies for MAO inhibition”. Also, the “ALDH-2 inhibition (in words)” value in series [3] is “completely abolished ALDH-2 inhibitory activities”.
The compound `CCc1ccc2c(=O)c(-c3ccccc3)coc2c1` [Analog 35, 7-Ethylisoflavone] displayed a melting point of 103 to 104 °C.
In the case of `O=c1c(-c2ccc(O)cc2)coc2cc(O)ccc12` [Analog 40], in series [2], the 50% inhibitory concentration (IC50) is 12 µM. Further, in series [4], the “EtOH intake suppression, %” value is on record as 22 ± 5%.
For the compound `CCO` [Ethanol, ethanol], the “Effect on 5-HT metabolism (in words)” value in series [5] and in [6] was “did not effect 5-HT metabolism” throughout.
On to `O=C(O)CCCCCOc1ccc2c(=O)c(-c3ccc(O)cc3)coc2c1` [Hexzein, 7-O-ω-carboxypentyldaidzein], for which the “EtOH intake suppression, %” value in series [4] was found to be 69 ± 12%. Besides, the “Concentration found in the liver (in words)” value in series [7] is “pharmacologically relevant concentrations”. The “Ethanol intake reduced by” value in [8] (2 mg/g hexzein-Chow) is given as 18.3±3.8%; in series [8] (4 mg/g hexzein-Chow), 47.8±7.4%; in series [8] (5 mg/g hexzein-Chow), 56.5±5.4%.

As a reminder, the IC50 is the concentration that gives 50% inhibition. As a reminder, the melting point is the temperature, or range, at which the solid turns liquid.

The record behind these values is patent publication US7368434B2, “Compounds useful for the inhibition of ALDH” (The Endowment for Research in Human Biology, Inc., priority 2002, dated 2008).
